Assay results published in USRE49579E1, “Non-peptidic GAPDH aggregation inhibitor” (University Public Corporation Osaka, priority 2015, dated 2023).
Read-outs that look alike come from different tables or passages of the source. Residues, ends and D or L forms follow the SMILES beside them. No end group written: not given here.

How the values were obtained:
stroke model mouse = assay: Cerebroprotective effects in a stroke model (MCAO); type: in vivo; settings: 60 nmol/mouse intraventricular, FIG. 4
Method: To a stroke model mouse, 60 nmol/mouse of a peptide was intraventricularly administered, and the reduction in cerebral infarction volume and the improvement in neurological symptoms after 24 hours were determined. The stroke model mouse was prepared in accordance with a method by of Andrabi et al. (Andrabi et al., Nat Med., 2011, June; 17(6): 692-9). A mouse was maintained under the state of ischemia for 30 minutes, and then perfusion was re-started. The cerebral infarction volume was measured […] after ischemia started. Further, in accordance with the method by Andrabi et al. (supra), a neurological score was determined for neurological symptoms of the mouse to evaluate the improvement in neurological symptoms.

[1] = Cytotoxicity: viability of PC12 cells in the presence of peptide (second screening A); type: cell-based; settings: rat, PC12 cells
Method: (§1) As the second screening, A) the viability of PC12 cells in the presence of a peptide, which represented cytotoxicity, B) effects on the GAPDH enzymatic activity, which represented side effects, and C) effects on amyloid formation, which represented specificity, were each investigated.
(§2) PC12 cells cultured to 80% confluence were cultured at 37° C. for 72 hours in the presence of 50 μM peptide, and the cell viability was measured in accordance with the conventional method.

Aβ40-treated PC12 cells = assay: Cytoprotective effects on Aβ1-40 induced PC12 cell death (third screening); type: cell-based
[2] = tested on: Aβ1-40 induced PC12 cell death; assay: Protective effects on amyloid β induced cell death in the presence of GAPDH-Seeds; type: cell-based; settings: GAPDH-Seeds (1%), GAI-17 50 μM, FIG. 2
purified human GAPDH [3] = target: T1, purified human GAPDH (Homo sapiens, UniProt P04406); assay: Side effects: effect on GAPDH enzymatic activity (second screening B); type: biochemical; settings: for 2nd. Screening Side effect Effect on GAPDH Activity (%) in vitro: 10 μM peptide, 0.01 μM GAPDH
T1 sequence (P04406 whole entry): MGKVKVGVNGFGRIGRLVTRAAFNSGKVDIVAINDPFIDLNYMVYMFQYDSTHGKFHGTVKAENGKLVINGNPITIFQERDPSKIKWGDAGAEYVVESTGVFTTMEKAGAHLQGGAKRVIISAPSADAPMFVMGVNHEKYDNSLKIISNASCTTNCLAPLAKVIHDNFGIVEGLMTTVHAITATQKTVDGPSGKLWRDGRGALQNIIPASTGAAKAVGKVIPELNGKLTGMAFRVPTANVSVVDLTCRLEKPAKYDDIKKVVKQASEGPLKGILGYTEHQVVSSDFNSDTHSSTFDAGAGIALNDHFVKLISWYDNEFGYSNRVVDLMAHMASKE
Method: as §1
A 10 μM peptide was added to 0.01 μM purified human GAPDH, and the enzymatic activity of GAPDH was measured in accordance with a method described in Patent Document 1.

Aβ25-35 = target: T2, Aβ25-35 (Homo sapiens, UniProt P05067); assay: Specificity: effect on amyloid formation (second screening C, fluorescence); type: biochemical; settings: 25 μM amyloid β, 37° C., 1 hour
T2 construct: Aβ25-35
Method: as §1
A solution containing 25 μM […] was incubated at 37° C. for 1 hour, and formation of amyloid aggregates was evaluated using the fluorescence intensity from the solution in accordance with a method described in Patent Document 1.

purified human GAPDH [4] = target: T1, purified human GAPDH; assay: GAPDH aggregation inhibitory activity (first screening, turbidity at 405 nm); type: biochemical; settings: for 1st. Screening Potency Inhibitory activity (%) (50 μM at 48 h) in vitro: 50 μM peptide, 5 μM GAPDH, 37° C.
Method: As the first screening, GAPDH aggregation inhibitory activities, which represents potency, were measured. According to a method described in Patent Document 1, a peptide was added to a solution in which 5 μM purified human GAPDH was dissolved in Buffer G2 so that, the concentration of the peptide was 50 μM, and then incubated at 37° C. for 48 hours. Then the aggregation inhibitory rate of GAPDH was measured using the turbidity (absorbance at 405 nm) of the solution.

PC12 cells = assay: Cytotoxicity: viability of PC12 cells in the presence of peptide (second screening A); type: cell-based; settings: FIG. 7
Method: as §1, §2

[5] = read-out: IC50 (MEAN ± S.E.) for the GAPDH aggregation inhibitory activity in vitro

IC50 (purified human GAPDH [4]; [5]) [nM]	aggregation inhibitory activity in the first screening, compared with lead compound (purified human GAPDH [4]; FIG. 6)	Compound	cerebral infarction volume (stroke model mouse)	neurological symptoms (stroke model mouse; after 24 hours)	viability at 72 h, 50 µM [1] [%]	3rd. Screening Effectiveness Cytoprotection (%) in Aβ40-treated PC12 cells (Aβ40-treated PC12 cells) [%]	protective effects on amyloid β40 induced PC12 cell death [2]	2nd. Screening Side effect Effect on GAPDH Activity (%) in vitro (purified human GAPDH [3]) [%]	2nd. Screening Specificity Effect on Aβ25-35 amyloidogenesis (%) in vitro (Aβ25-35) [%]	1st. Screening Potency Inhibitory activity (%) (50 μM at 48 h) in vitro (purified human GAPDH [4])	viability at 72 h, 50 µM ([1]; 50 μM peptide, 37° C., 72 hours, read-out: 2nd. Screening Cytotoxicity Cell viability (%) in PC12 cells) [%]	IC50 (purified human GAPDH [4]) [nM]	cytotoxicity in the second screening, compared with lead compound (PC12 cells)	GAPDH enzymatic activity in the second screening (purified human GAPDH [3]; FIG. 7)
1190 ± 150		C[C@@H](O)[C@H](NC(=O)[C@H](CS)NC(=O)[C@@H](N)CO)C(=O)O [GAI-17, SCT] (H-Ser-Cys-Thr-OH; N-terminus and C-terminus assumed)	decrease cerebral infarction volume	improve neurological symptoms	100 ± 0.76	99.4 ± 1.21	protective effects	97.9 ± 0.72	102 ± 6.39	97.7 ± 1.48				
		SNASCTTNAL [GAI-1, SNASCTTNAL, reference compound]				48.0 ± 3.85		105 ± 1.80	103 ± 9.94	53.2 ± 1.73	104 ± 1.37	50000 ± 200		
900 ± 110	superior to that of the lead compound	C[C@@H](O)CNC(=O)[C@H](CS)NCCCO [TN-101]											comparable with or smaller than those of the lead compound	uninhibited GAPDH enzymatic activity
